Key:
Test in all cases: stopped-flow CO2 hydrase assay
Assay type in all cases: biochemical
Conditions in all cases: CO2 […], […] Hepes pH […] Na2SO4, […] h preincubation at room temperature
hCA XII = target: T1, hCA XII (Homo sapiens, UniProt O43570)
T1 construct: gene CA12; recombinant, obtained in-house
Text: stopped-flow CO2 hydrase assay on hCA XII

hCA I = target: T2, hCA I (Homo sapiens, UniProt P00915)
T2 construct: gene CA1; recombinant, obtained in-house
Text: stopped-flow CO2 hydrase assay on hCA I

hCA IX = target: T3, hCA IX (Homo sapiens, UniProt Q16790)
T3 construct: gene CA9; recombinant, obtained in-house
Text: stopped-flow CO2 hydrase assay on hCA IX

hCA II = target: T4, hCA II (Homo sapiens, UniProt P00918)
T4 construct: gene CA2; recombinant, obtained in-house
Text: stopped-flow CO2 hydrase assay on hCA II

T2 sequence (P00915 2-261): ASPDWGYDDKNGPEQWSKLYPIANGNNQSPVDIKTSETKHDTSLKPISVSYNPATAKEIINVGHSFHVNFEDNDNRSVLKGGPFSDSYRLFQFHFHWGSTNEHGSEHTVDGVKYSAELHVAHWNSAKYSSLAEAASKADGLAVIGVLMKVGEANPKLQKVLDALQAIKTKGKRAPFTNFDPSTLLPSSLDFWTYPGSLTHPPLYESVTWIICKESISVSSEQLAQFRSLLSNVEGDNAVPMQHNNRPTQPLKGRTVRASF
T1 sequence (O43570 25-354): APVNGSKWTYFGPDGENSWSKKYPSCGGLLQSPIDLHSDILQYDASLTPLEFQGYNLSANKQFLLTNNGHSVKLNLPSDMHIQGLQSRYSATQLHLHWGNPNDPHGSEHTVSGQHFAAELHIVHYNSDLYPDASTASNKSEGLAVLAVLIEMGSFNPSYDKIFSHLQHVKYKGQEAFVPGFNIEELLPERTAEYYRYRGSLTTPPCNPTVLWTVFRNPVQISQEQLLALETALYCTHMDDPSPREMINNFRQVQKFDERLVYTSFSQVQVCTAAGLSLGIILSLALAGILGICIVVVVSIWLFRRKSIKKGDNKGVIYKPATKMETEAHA

## [{(η^5-C5H4)-C(CH3)=N-N(H)-C6H4-4-SO2NH2}]FeCp [3b]
hCA XII
  Ki: 1.9 nM
hCA I
  Ki: 3.6 nM
hCA IX
  Ki: 41.9 nM
hCA II
  Ki: 9.3 nM

## [{(η^5-C5H4)-C(CH3)=N–N(H)-C6H4-4-SO2NH2}]Mn(CO)3 [2b]
hCA XII
  Ki: 3.3 nM
hCA I
  Ki: 269 nM
hCA IX
  Ki: 221 nM
hCA II
  Ki: 11.2 nM

## [{(η^5-C5H4)-C(CH3)=N–N(H)-C6H4-4-SO2NH2}]re(CO)3 [1b]
hCA XII
  Ki: 3.8 nM
hCA I
  Ki: 3.7 nM
hCA IX
  Ki: 25 nM
hCA II
  Ki: 9.7 nM

## [{(η^5-C5H4)-CH=N–N(H)-C6H4-4-SO2NH2}]FeCp [3a]
hCA XII
  Ki: 4.9 nM
hCA I
  Ki: 13.2 nM
hCA IX
  Ki: 49.9 nM
hCA II
  Ki: 1.7 nM

## [{(η^5-C5H4)-CH=N–N(H)-C6H4-4-SO2NH2}]Mn(CO)3 [2a]
hCA XII
  Ki: 3.1 nM
hCA I
  Ki: 5.9 nM
hCA IX
  Ki: 2.1 nM
hCA II
  Ki: 8.2 nM

## [{(η^5-C5H4)-CH=N–N(H)-C6H4-4-SO2NH2}]re(CO)3 [1a]
hCA XII
  Ki: 24.4 nM
hCA I
  Ki: 7.5 nM
hCA IX
  Ki: 580 nM
hCA II
  Ki: 22.4 nM

Source: PMC7034112, “Bioorganometallic derivatives of 4-hydrazino-benzenesulphonamide as carbonic anhydrase inhibitors: synthesis, characterisation and biological evaluation” (Journal of Enzyme Inhibition and Medicinal Chemistry, 2020)
